From patent US10294202B2, “Pyrrolidinones as herbicides” (FMC Corporation, priority 2013, dated 2019)

Tests used:
corn = test: Test C pre-/postemergence herbicide test; format: in vivo, Zea mays
Outline: (§1)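 Two application timings ran in parallel with identically formulated test chemicals (non-phytotoxic solvent, surfactant included): spray on seeded loam–sand soil, and spray on emerged plants 2 to 18 cm high. Evaluation at 13 to 15 days compared each species with controls, rated from 0 up to 100.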

johnsongrass = test: Test C pre-/postemergence herbicide test; format: in vivo, Sorghum halepense
Outline: as §1

pigweed [1] = test: Test A pre-/postemergence herbicide test; format: in vivo, Amaranthus retroflexus
Outline: (§2)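 Directed soil spray to seeded pots (preemergence) or spray onto one- to two-leaf seedlings 2–10 cm tall (postemergence); loam/sand substrate throughout. Evaluated visually after about 10 days against untreated plants, 0 = no effect, 100 = complete control.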

foxtail, giant = test: Test C pre-/postemergence herbicide test; format: in vivo, Setaria faberii
Outline: as §1

nutsedge, yellow = test: Test C pre-/postemergence herbicide test; format: in vivo, Cyperus esculentus
Outline: as §1

pigweed [2] = test: Test C pre-/postemergence herbicide test; format: in vivo, Amaranthus retroflexus
Outline: as §1

waterhemp = test: Test C pre-/postemergence herbicide test; format: in vivo, Amaranthus rudis
From the text: (§3) Seeds of plant species selected from blackgrass (Alopecurus myosuroides), ryegrass, Italian (Italian ryegrass, Lolium multiflorum), wheat (winter wheat, Triticum aestivum), galium (catchweed bedstraw, Galium aparine), corn (Zea mays), crabgrass, large (large crabgrass, Digitaria sanguinalis), foxtail, giant (giant foxtail, Setaria faberii), johnsongrass (Sorghum halepense), lambsquarters (Chenopodium album), morningglory (Ipomoea coccinea), nutsedge, yellow (yellow nutsedge, Cyperus esculentus), pigweed (Amaranthus retroflexus), ragweed (common ragweed, Ambrosia elatior), soybean (Glycine max), barnyardgrass (Echinochloa crus-galli), oilseed rape (Brassica napus), waterhemp (common waterhemp, Amaranthus rudis), kochia (Kochia scoparia), oat, wild (wild oat, Avena fatua), surinam grass (Brachiaria decumbens), foxtail, green (green foxtail, Setaria viridis), goosegrass (Eleusine indica), bromegrass, downy (downy bromegrass, Bromus tectorum), nightshade (eastern black nightshade, Solanum ptycanthum), cocklebur (common cocklebur, Xanthium strumarium), cupgrass, woolly (woolly cupgrass, Eriochloa villosa), bermudagrass (Cynodon dactylon), sunflower, (common oilseed sunflower, Helianthus annuus), Russian thistle (Salsola kali) and velvetleaf (Abutilon theophrasti) were planted into a blend of loam soil and sand and treated preemergence with test chemicals formulated in a non-phytotoxic solvent mixture which included a surfactant. At the same time, plants selected from these crop and weed species and also barley (winter barley, Hordeum vulgare), […]), chickweed (common chickweed, Stellaria media), deadnettle (henbit deadnettle, Lamium amplexicaule), and canarygrass (littleseed canarygrass, Phalaris minor) were planted in pots containing Redi-Earth® planting medium (Scotts Company, 14111 Scottslawn Road, Marysville, Ohio 43041) comprising spaghnum peat moss, vermiculite, wetting agent and starter nutrients and treated with postemergence applications of test chemicals formulated in the same manner. Plants ranged in height from 2 to 18 cm (1- to 4-leaf stage) for postemergence treatments. Treated plants and controls were maintained in a greenhouse for 13 to 15 days, after which time all species were compared to controls and visually evaluated. Plant response ratings, summarized in Table C, are based on a scale of 0 to 100 where 0 is no effect and 100 is complete control. A dash (-) response means no test result.

wheat = test: Test A pre-/postemergence herbicide test; format: in vivo, Triticum aestivum; settings: Postemergence
Outline: as §2

oilseed rape = test: Test C pre-/postemergence herbicide test; format: in vivo, Brassica napus
From the text: as §3

velvetleaf = test: Test C pre-/postemergence herbicide test; format: in vivo, Abutilon theophrasti
Outline: as §1

galium = test: Test C pre-/postemergence herbicide test; format: in vivo, Galium aparine
Outline: as §1

lambsquarters = test: Test C pre-/postemergence herbicide test; format: in vivo, Chenopodium album
Outline: as §1

[3] = Postemergence, 8 g ai/ha, scale 0 to 100 (0 no effect, 100 complete control)
[4] = Postemergence, 16 g ai/ha, scale 0 to 100 (0 no effect, 100 complete control)
[5] = Postemergence, 31 g ai/ha, scale 0 to 100 (0 no effect, 100 complete control)
[6] = Postemergence, 62 g ai/ha, scale 0 (no effect) to 100 (complete control)
[7] = Preemergence, 31 g ai/ha, scale 0 to 100, 0 is no effect and 100 is complete control
[8] = Preemergence, 62 g ai/ha, scale 0 to 100 (0 no effect, 100 complete control)
[9] = Preemergence, 8 g ai/ha, scale 0 to 100
[10] = Preemergence, 16 g ai/ha, scale 0 to 100
[11] = Postemergence, 125 g ai/ha, visual rating on 0 to 100 scale (0 no effect, 100 complete control), approx. 10 days
[12] = 125 g ai/ha, visual rating on 0 to 100 scale (0 no effect, 100 complete control), approx. 10 days
[13] = Preemergence, 125 g ai/ha, scale 0 to 100 (0 no effect, 100 complete control)

## CN1CC(c2ccc(F)cc2)C(C(=O)Nc2cccc(F)c2F)C1=O (centres unmarked) [Compound 271]
corn; [3]
  Plant response rating, Corn: 0
corn; [4]
  Plant response rating, Corn: 0
corn; [5]
  Plant response rating, Corn: 0
corn; [6]
  Plant response rating, Corn: 0
corn; [7]
  Corn plant response rating: 0
corn; [8]
  Corn plant response rating: 0
corn; [9]
  Plant response rating, Corn: 0
corn; [10]
  Plant response rating, Corn: 0
johnsongrass; [3]
  Plant response rating, Johnsongrass: 10
johnsongrass; [4]
  Plant response rating, Johnsongrass: 10
johnsongrass; [5]
  Plant response rating, Johnsongrass: 10
johnsongrass; [6]
  Plant response rating, Johnsongrass: 10
johnsongrass; [7]
  Johnsongrass plant response rating: 0
johnsongrass; [8]
  Johnsongrass plant response rating: 10
johnsongrass; [9]
  Plant response rating, Johnsongrass: 0
johnsongrass; [10]
  Plant response rating, Johnsongrass: 0
Pigweed [1]; [11]
  Plant response rating, Pigweed: 0
Pigweed [1]; Postemergence, 500 g ai/ha, 0 to 100 scale (0 no effect, 100 complete control)
  Plant response rating, Pigweed: 20
Pigweed [1]; Preemergence, 125 g ai/ha, 0 to 100 scale where 0 is no effect and 100 is complete control
  Plant response rating, Pigweed: 40
Pigweed [1]; preemergence, 500 g ai/ha, 0 to 100 scale, 0 is no effect and 100 is complete control
  Plant response rating, Pigweed: 80
foxtail, giant; [3]
  Plant response rating, Foxtail, Giant: 0
foxtail, giant; [4]
  Plant response rating, Foxtail, Giant: 0
foxtail, giant; [5]
  Plant response rating, Foxtail, Giant: 0
foxtail, giant; [6]
  Plant response rating, Foxtail, Giant: 0
foxtail, giant; [7]
  Foxtail, Giant plant response rating: 90
foxtail, giant; [8]
  Foxtail, Giant plant response rating: 98
foxtail, giant; [9]
  Plant response rating, Foxtail, Giant: 55
foxtail, giant; [10]
  Plant response rating, Foxtail, Giant: 75
nutsedge, yellow; [3]
  Plant response rating, Nutsedge, Yellow: 0
nutsedge, yellow; [4]
  Plant response rating, Nutsedge, Yellow: 0
nutsedge, yellow; [5]
  Plant response rating, Nutsedge, Yellow: 0
nutsedge, yellow; [6]
  Plant response rating, Nutsedge, Yellow: 0
nutsedge, yellow; [7]
  Nutsedge, Yellow plant response rating: 0
nutsedge, yellow; [8]
  Nutsedge, Yellow plant response rating: 0
nutsedge, yellow; [9]
  Plant response rating, Nutsedge, Yellow: 0
nutsedge, yellow; [10]
  Plant response rating, Nutsedge, Yellow: 0
Pigweed [2]; [3]
  Plant response rating, Pigweed: 5
Pigweed [2]; [4]
  Plant response rating, Pigweed: 5
Pigweed [2]; [5]
  Plant response rating, Pigweed: 10
Pigweed [2]; [6]
  Plant response rating, Pigweed: 30
Pigweed [2]; [7]
  Pigweed plant response rating: 0
Pigweed [2]; [8]
  Pigweed plant response rating: 25
Pigweed [2]; [10]
  Plant response rating, Pigweed: 0
waterhemp; [3]
  Plant response rating, Waterhemp: 0
waterhemp; [4]
  Plant response rating, Waterhemp: 0
waterhemp; [5]
  Plant response rating, Waterhemp: 0
waterhemp; [6]
  Plant response rating, Waterhemp: 5
waterhemp; [7]
  Waterhemp plant response rating: 0
waterhemp; [8]
  Waterhemp plant response rating: 35
waterhemp; [9]
  Plant response rating, Waterhemp: 0
waterhemp; [10]
  Plant response rating, Waterhemp: 0
wheat; [12]
  Plant response rating, Wheat: 0
wheat; 500 g ai/ha, 0 to 100 scale (0 no effect, 100 complete control)
  Plant response rating, Wheat: 80
Oilseed rape; [3]
  Plant response rating, Oilseed Rape: 0
Oilseed rape; [4]
  Plant response rating, Oilseed Rape: 0
Oilseed rape; [5]
  Plant response rating, Oilseed Rape: 0
Oilseed rape; [6]
  Plant response rating, Oilseed Rape: 20
Oilseed rape; [7]
  Oilseed Rape plant response rating: 0
Oilseed rape; [8]
  Oilseed Rape plant response rating: 20
Oilseed rape; [9]
  Plant response rating, Oilseed Rape: 0
Oilseed rape; [10]
  Plant response rating, Oilseed Rape: 0
velvetleaf; [3]
  Plant response rating, Velvetleaf: 0
velvetleaf; [4]
  Plant response rating, Velvetleaf: 0
velvetleaf; [5]
  Plant response rating, Velvetleaf: 5
velvetleaf; [6]
  Plant response rating, Velvetleaf: 5
velvetleaf; [7]
  Velvetleaf plant response rating: 0
velvetleaf; [8]
  Velvetleaf plant response rating: 10
velvetleaf; [9]
  Plant response rating, Velvetleaf: 0
velvetleaf; [10]
  Plant response rating, Velvetleaf: 0
galium; [3]
  Plant response rating, Galium: 0
galium; [4]
  Plant response rating, Galium: 5
galium; [5]
  Plant response rating, Galium: 30
galium; [6]
  Plant response rating, Galium: 30
lambsquarters; [3]
  Plant response rating, Lambsquarters: 10
lambsquarters; [4]
  Plant response rating, Lambsquarters: 45
lambsquarters; [5]
  Plant response rating, Lambsquarters: 50
lambsquarters; [6]
  Plant response rating, Lambsquarters: 55
lambsquarters; [7]
  Lambsquarters plant response rating: 0
lambsquarters; [8]
  Lambsquarters plant response rating: 20
lambsquarters; [9]
  Plant response rating, Lambsquarters: 0
lambsquarters; [10]
  Plant response rating, Lambsquarters: 0

## O=C(Nc1ccccc1F)C1C(=S)NCC1c1cccc(C(F)(F)F)c1 (centres unmarked) [Compound 274]
corn; [7]
  Corn plant response rating: 0
corn; [8]
  Corn plant response rating: 5
corn; [13]
  Plant response rating, Corn: 10
corn; Preemergence, 250 g ai/ha
  Plant response rating (scale of 0 to 100), Corn: 45
johnsongrass; [7]
  Johnsongrass plant response rating: 0
johnsongrass; [8]
  Johnsongrass plant response rating: 0
johnsongrass; [13]
  Plant response rating, Johnsongrass: 0
johnsongrass; Preemergence, 250 g ai/ha
  Plant response rating (scale of 0 to 100), Johnsongrass: 30
Pigweed [1]; [11]
  Plant response rating, Pigweed: 0
Pigweed [1]; Postemergence, 1000 g ai/ha, 0 to 100 scale (0 no effect, 100 complete control)
  Plant response rating, Pigweed: 20
Pigweed [1]; preemergence, 1000 g ai/ha, 0 to 100 scale
  Plant response rating, Pigweed: 0
foxtail, giant; [7]
  Foxtail, Giant plant response rating: 80
foxtail, giant; [8]
  Foxtail, Giant plant response rating: 85
foxtail, giant; [13]
  Plant response rating, Foxtail, Giant: 90
foxtail, giant; Preemergence, 250 g ai/ha
  Plant response rating (scale of 0 to 100), Foxtail, Giant: 95
nutsedge, yellow; [7]
  Nutsedge, Yellow plant response rating: 0
nutsedge, yellow; [8]
  Nutsedge, Yellow plant response rating: 0
nutsedge, yellow; [13]
  Plant response rating, Nutsedge, Yellow: 0
nutsedge, yellow; Preemergence, 250 g ai/ha
  Plant response rating (scale of 0 to 100), Nutsedge, Yellow: 0
Pigweed [2]; [7]
  Pigweed plant response rating: 0
Pigweed [2]; [8]
  Pigweed plant response rating: 0
Pigweed [2]; [13]
  Plant response rating, Pigweed: 0
Pigweed [2]; Preemergence, 250 g ai/ha
  Plant response rating (scale of 0 to 100), Pigweed: 0
waterhemp; [7]
  Waterhemp plant response rating: 0
waterhemp; [8]
  Waterhemp plant response rating: 0
waterhemp; Preemergence, 250 g ai/ha
  Plant response rating (scale of 0 to 100), Waterhemp: 0
wheat; [12]
  Plant response rating, Wheat: 0
wheat; 1000 g ai/ha, 0 to 100 scale (0 no effect, 100 complete control)
  Plant response rating, Wheat: 40
Oilseed rape; [7]
  Oilseed Rape plant response rating: 0
Oilseed rape; [8]
  Oilseed Rape plant response rating: 0
Oilseed rape; [13]
  Plant response rating, Oilseed Rape: 5
Oilseed rape; Preemergence, 250 g ai/ha
  Plant response rating (scale of 0 to 100), Oilseed Rape: 30
velvetleaf; [7]
  Velvetleaf plant response rating: 0
velvetleaf; [8]
  Velvetleaf plant response rating: 20
velvetleaf; [13]
  Plant response rating, Velvetleaf: 20
velvetleaf; Preemergence, 250 g ai/ha
  Plant response rating (scale of 0 to 100), Velvetleaf: 20
galium; [7]
  Galium plant response rating: 0
galium; [8]
  Galium plant response rating: 0
galium; [13]
  Plant response rating, Galium: 80
lambsquarters; [8]
  Lambsquarters plant response rating: 0
lambsquarters; Preemergence, 250 g ai/ha
  Plant response rating (scale of 0 to 100), Lambsquarters: 0
